According to patent US7329657B2, “Indazolyl-substituted pyrroline compounds as kinase inhibitors” (Ortho-McNeil Pharmaceutical, Inc., priority 2000, dated 2008):

Tests used:
Format in all cases: biochemical
PKC α = PKC α (Homo sapiens, UniProt P17252); assay: Protein Kinase C Histone-Based Assay, α isoform; conditions: histone III substrate, 30 μM ATP, 10 min at 30° C.; read-out: PKC Activity (IC50 μM, Histone Based Assay) Alpha
Protocol: (§1) Compounds were evaluated for PKC selectivity using histone III as the substrate. […] The reaction was incubated for 10 min at 30° C. Reactions were terminated by TCA precipitation and spotting on Whatman P81 filters. Filters were washed in 75 mM phosphoric acid and the radioactivity quantified by liquid scintillation counting.

PKC γ = PKC γ (Homo sapiens, UniProt P05129); assay: Protein Kinase C Histone-Based Assay, γ isoform; conditions: histone III substrate, 30 μM ATP, 10 min at 30° C.; read-out: PKC Activity (IC50 μM, Histone Based Assay) Gamma
Protocol: as §1

[1] = target: T1, recombinant rabbit GSK-3β protein (Oryctolagus cuniculus, UniProt G1T8E2); assay: Glycogen Synthase Kinase-3 Assay; conditions: PPI-2 substrate, 33P-ATP, 90 minutes at 30° C.
T1 construct: purchased New England Biolabs
Protocol: Compounds were tested for the ability to inhibit recombinant rabbit GSK-3β protein using the following protocol. The test compound was added to a reaction mixture containing Protein phosphatase inhibitor-2 (PPI-2) (Calbiochem) (45 ng), rabbit GSK-3β protein (New England Biolabs) (0.75 units) and ^33P-ATP (1 μCi) in 50 mM Tris-HCl (pH 8.0), 10 mM MgCl2, 0.1% BSA, 1 mM DTT and 100 μM Sodium Vanadate. The mixture was reacted for 90 minutes at 30° C. to allow phosphorylation of the PPI-2 protein and then the protein in the reaction was precipitated using 10% TCA. The precipitated protein was collected on filter plates (MultiScreen-DV/Millipore), which were subsequently washed. Finally, the radioactivity was quantified using a TopCount Scintillation Counter (Packard).

PKC β-II = PKC β-II (Homo sapiens, UniProt P05771); assay: Protein Kinase C Histone-Based Assay, β-II isoform; conditions: histone III substrate, 30 μM ATP, 10 min at 30° C.; read-out: PKC Activity (IC50 μM, Histone Based Assay) Beta II
Protocol: as §1

Chain of PKC β-II (P05771 1-673 isoform P05771-2): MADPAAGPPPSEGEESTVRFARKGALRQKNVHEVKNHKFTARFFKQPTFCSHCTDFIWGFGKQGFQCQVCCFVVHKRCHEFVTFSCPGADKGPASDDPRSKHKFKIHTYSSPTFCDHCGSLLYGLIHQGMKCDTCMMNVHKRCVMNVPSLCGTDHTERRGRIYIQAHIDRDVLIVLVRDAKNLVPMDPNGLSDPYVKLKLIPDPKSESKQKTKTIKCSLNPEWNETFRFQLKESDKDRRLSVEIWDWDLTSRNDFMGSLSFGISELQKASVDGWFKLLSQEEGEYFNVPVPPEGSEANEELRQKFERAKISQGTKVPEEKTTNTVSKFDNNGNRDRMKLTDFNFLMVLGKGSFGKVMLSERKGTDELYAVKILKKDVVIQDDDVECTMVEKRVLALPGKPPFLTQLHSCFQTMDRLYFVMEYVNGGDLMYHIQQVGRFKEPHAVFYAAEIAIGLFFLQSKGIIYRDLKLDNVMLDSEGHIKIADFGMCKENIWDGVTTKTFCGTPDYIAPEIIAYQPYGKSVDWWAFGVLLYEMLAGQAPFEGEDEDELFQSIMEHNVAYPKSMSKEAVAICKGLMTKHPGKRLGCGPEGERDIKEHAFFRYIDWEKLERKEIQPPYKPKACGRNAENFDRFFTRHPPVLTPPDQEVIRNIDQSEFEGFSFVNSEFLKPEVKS
T1 sequence (G1T8E2 1-432): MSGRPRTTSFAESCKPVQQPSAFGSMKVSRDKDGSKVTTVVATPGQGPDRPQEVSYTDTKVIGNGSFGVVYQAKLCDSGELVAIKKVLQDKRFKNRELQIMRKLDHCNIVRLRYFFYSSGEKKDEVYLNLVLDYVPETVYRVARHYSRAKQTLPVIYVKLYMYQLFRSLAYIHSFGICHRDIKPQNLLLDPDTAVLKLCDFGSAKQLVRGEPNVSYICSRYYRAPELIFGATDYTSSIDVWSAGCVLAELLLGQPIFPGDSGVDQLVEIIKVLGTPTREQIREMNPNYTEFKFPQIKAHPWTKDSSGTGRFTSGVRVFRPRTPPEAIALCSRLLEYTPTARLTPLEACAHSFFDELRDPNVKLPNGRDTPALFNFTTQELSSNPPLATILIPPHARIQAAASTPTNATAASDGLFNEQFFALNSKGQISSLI

Compound | IC50 (PKC α) [µM] | IC50 (PKC γ) [µM] | IC50 [1] [µM] | IC50 (PKC β-II) [µM]
C=Cn1cc(C2=C(c3nn(CCCN(C)C)c4ccccc34)C(=O)NC2=O)c2ccccc21 [Compound 3, 3-[1-[3-(dimethylamino)propyl]-1H-indazol-3-yl]-4-(1-ethenyl-1H-indol-3-yl)-1H-pyrrole-2,5-dione] | 0.248 | 0.323 | 0.049 | 0.023
O=C1NC(=O)C(c2nn(CCCO)c3ccccc23)=C1c1cn(-c2cncc3ccccc23)c2ccccc12 [Compound 105, 3-[1-(3-hydroxypropyl)-1H-indazol-3-yl]-4-[1-(4-isoquinolinyl)-1H-indol-3-yl]-1H-pyrrole-2,5-dione] |  |  | 0.073 | 
Cn1cc(C2=C(c3nn(CCCN4CCOCC4)c4ccccc34)C(=O)NC2=O)c2cc(Cl)ccc21 [Compound 78, 3-(5-chloro-1-methyl-1H-indol-3-yl)-4-[1-[3-(4-morpholinyl)propyl]-1H-indazol-3-yl]-1H-pyrrole-2,5-dione] | 0.94 | 0.53 | 0.041 | 0.016
O=C1NC(=O)C(c2nn(CCCO)c3ccccc23)=C1c1cn(-c2ccccn2)c2ccccc12 [Compound 102, 3-[1-(3-hydroxypropyl)-1H-indazol-3-yl]-4-[1-(2-pyridinyl)-1H-indol-3-yl]-1H-pyrrole-2,5-dione] |  |  | 0.21 | 
O=C1NC(=O)C(c2cn(-c3cccnc3)c3ccccc23)=C1c1[nH]nc2ccccc12 [Compound 118, 3-(1H-indazol-3-yl)-4-[1-(3-pyridinyl)-1H-indol-3-yl]-1H-pyrrole-2,5-dione] |  |  | 0.2 | 
O=CCCn1nc(C2=C(c3cn(-c4cccnc4)c4ccccc34)C(=O)NC2=O)c2ccccc21 [Compound 112, 1H-indazole-1-propanal, 3-[2,5-dihydro-2,5-dioxo-4-[1-(3-pyridinyl)-1H-indol-3-yl]-1H-pyrrol-3-yl]-1H-pyrrole-2,5-dione] |  |  | 0.115 | 
CN(CCO)CCCn1nc(C2=C(c3cn(C)c4ccc(Cl)cc34)C(=O)NC2=O)c2ccccc21 [Compound 79, 3-(5-chloro-1-methyl-1H-indol-3-yl)-4-[1-[3-[(2-hydroxyethyl)methylamino]propyl]-1H-indazol-3-yl]-1H-pyrrole-2,5-dione] | 0.065 | 0.074 | 0.014 | 0.007
O=C1NC(=O)C(c2nn(CCO)c3ccccc23)=C1c1cn(-c2cccnc2)c2ccccc12 [Compound 110, 3-[1-(2-hydroxyethyl)-1H-indazol-3-yl]-4-[1-(3-pyridinyl)-1H-indol-3-yl]-1H-pyrrole-2,5-dione] |  |  | 0.075 | 
COCCCn1nc(C2=C(c3cn(-c4cccnc4)c4ccccc34)C(=O)NC2=O)c2ccccc21 [Compound 117, 3-[1-(3-methoxypropyl)-1H-indazol-3-yl]-4-[1-(3-pyridinyl)-1H-indol-3-yl]-1H-pyrrole-2,5-dione] |  |  | 0.07 | 0.034
CCn1nc(C2=C(c3cn(CCCN4CCOCC4)c4ccccc34)C(=O)NC2=O)c2cc(Cl)ccc21 [Compound 86, 3-(5-chloro-1-ethyl-1H-indazol-3-yl)-4-[1-[3-(4-morpholinyl)propyl]-1H-indol-3-yl]-1H-pyrrole-2,5-dione] |  |  | 0.13 | 
O=C1NC(=O)C(c2nn(CCOCCO)c3ccccc23)=C1c1cn(-c2cccnc2)c2ccccc12 [Compound 106, 3-[1-[2-(2-hydroxyethoxy)ethyl]-1H-indazol-3-yl]-4-[1-(3-pyridinyl)-1H-indol-3-yl]-1H-pyrrole-2,5-dione] |  |  | 0.033 | 
CN(C)CCCn1nc(C2=C(c3cn(-c4ccccc4)c4ccc(Cl)cc34)C(=O)NC2=O)c2ccccc21 [Compound 48, 3-(5-chloro-1-phenyl-1H-indol-3-yl)-4-[1-[3-(dimethylamino)propyl]-1H-indazol-3-yl]-1H-pyrrole-2,5-dione] |  |  | 0.09 | 
CCn1cc(C2=C(c3nn(CCCN(C)C)c4ccccc34)C(=O)NC2=O)c2cc(C#N)ccc21 [Compound 98, 3-[4-[1-[3-(dimethylamino)propyl]-1H-indazol-3-yl]-2,5-dihydro-2,5-dioxo-1H-pyrrol-3-yl]-1-ethyl-1H-indole-5-carbonitrile] |  |  | 0.015 | 
C=Cn1cc(C2=C(c3nn(CC(O)CN(C)C)c4ccc(Cl)cc34)C(=O)NC2=O)c2ccccc21 (stereo not drawn) [Compound 4, 3-[5-chloro-1-[3-(dimethylamino)-2-hydroxypropyl]-1H-indazol-3-yl]-4-(1-ethenyl-1H-indol-3-yl)-1H-pyrrole-2,5-dione] |  |  | 0.27 | 
O=C1NC(=O)C(c2nn(CCCCO)c3ccccc23)=C1c1cn(-c2cccnc2)c2ccccc12 [Compound 111, 3-[1-(4-hydroxybutyl)-1H-indazol-3-yl]-4-[1-(3-pyridinyl)-1H-indol-3-yl]-1H-pyrrole-2,5-dione] |  |  | 0.04 | 
CN(C)CCCn1nc(C2=C(c3cn(-c4cccs4)c4ccc(Cl)cc34)C(=O)NC2=O)c2ccccc21 [Compound 33, 3-[5-chloro-1-(2-thienyl)-1H-indol-3-yl]-4-[1-[3-(dimethylamino)propyl]-1H-indazol-3-yl]-1H-pyrrole-2,5-dione] |  |  | 0.07 | 
CN(C)CCCn1nc(C2=C(c3cn(C)c4ccc(Cl)cc34)C(=O)NC2=O)c2ccccc21 [Compound 43, 3-(5-chloro-1-methyl-1H-indol-3-yl)-4-[1-[3-(dimethylamino)propyl]-1H-indazol-3-yl]-1H-pyrrole-2,5-dione] |  |  | 0.034 | 
CCn1cc(C2=C(c3nn(CCCN(C)C)c4ccccc34)C(=O)NC2=O)c2cccc(Cl)c21 [Compound 95, 3-(7-chloro-1-ethyl-1H-indol-3-yl)-4-[1-[3-(dimethylamino)propyl]-1H-indazol-3-yl]-1H-pyrrole-2,5-dione] |  |  | 0.06 | 
Cn1cc(C2=C(c3nn(CCCO)c4ccccc34)C(=O)NC2=O)c2cc(Cl)ccc21 [Compound 74, 3-(5-chloro-1-methyl-1H-indol-3-yl)-4-[1-(3-hydroxypropyl)-1H-indazol-3-yl]-1H-pyrrole-2,5-dione] |  |  | 0.014 | 
CN(C)CCCn1nc(C2=C(c3cn(-c4ccncc4)c4ccccc34)C(=O)NC2=O)c2ccccc21 [Compound 32, 3-[1-[3-(dimethylamino)propyl]-1H-indazol-3-yl]-4-[1-(4-pyridinyl)-1H-indol-3-yl]-1H-pyrrole-2,5-dione] |  |  | 0.51 | 
CC(C)(C)OC(=O)NCCCn1nc(C2=C(c3cn(-c4cccnc4)c4ccccc34)C(=O)NC2=O)c2ccccc21 [Compound 115, [3-[3-[2,5-dihydro-2,5-dioxo-4-[1-(3-pyridinyl)-1H-indol-3-yl]-1H-pyrrol-3-yl]-1H-indazol-1-yl]propyl]-carbamic acid 1,1-dimethylethyl ester] |  |  | 0.055 | 
CC(=O)OCCCn1nc(C2=C(c3cn(C)c4ccc(Cl)cc34)C(=O)NC2=O)c2ccccc21 [Compound 76, 3-[1-[3-(acetyloxy)propyl]-1H-indazol-3-yl]-4-(5-chloro-1-methyl-1H-indol-3-yl)-1H-pyrrole-2,5-dione] |  |  | 0.085 | 
CCn1cc(C2=C(c3nn(CCCN(C)C)c4ccccc34)C(=O)NC2=O)c2ccc(Cl)cc21 [Compound 90, 3-(6-chloro-1-ethyl-1H-indol-3-yl)-4-[1-[3-(dimethylamino)propyl]-1H-indazol-3-yl]-1H-pyrrole-2,5-dione] |  |  | 0.096 | 
